# Results: patent US20040265323A1, “Compositions comprising pathogen elicited epithelial chemoattractant (eicosanoid hepoxilin A3), inhibitors thereof and methods of use thereof” (priority 2003, published 2004)
# Values joined by “and” are separate entries in the source; they are usually repeats but may differ in a detail not shown here. Identical values can stand only once. “Also recorded” adds a separate entry of the source.
# Assays:
# [1] = tested on: P. aeruginosa-induced PMN transepithelial migration, A549 cells; experiment: P. aeruginosa-induced PMN transepithelial migration across A549 cell monolayers; assay type: cell-based, human; conditions: excess hepoxilin A3 added to basolateral compartment; data not shown
# Excerpt: It was further determined whether similar hepoxilin A3 recruitment of PMN by apically attached pathogens might occur at other mucosal surfaces. Pseudomonas aeruginosa is the most prominent bacterial spp. present during chronic infection in cystic fibrosis and chronic obstructive pulmonary disease patients and is accompanied by severe inflammation, including the emigration of PMN to the airway lumen (Pizurki et al., 2000; Jahn et al., 2000; Weiss, S. 1989). As a model for the airway epithelium the A549 cell line was used. This cell line is capable of forming a polarized barrier, and is widely employed as a model for the airway epithelial surface (Smart and Casale, 1994). […] Finally, the secretion of hepoxlin A3 in vitro was quantified using this A549 model system. For these experiments, A549 lung epithelial cells (ATTC) were grown in F12K media (Invitrogen) with 10% FBS, and maintained in culture similar to the T84 cell line. The wild type P. aeruginosa (PAO1) was used for infection of A549 after overnight aerobic growth (Luria broth) at 37° C.
# [2] = Stability in acidified acetonitrile; assay type: physicochemical; conditions: overnight incubation in acid
# Experimental: Molecules of the 5-LO, 8-LO, 12-LO and 15-LO pathways of arachadonic metabolism were analyzed by LC/MS breakdown patterns and compared to PEEC. […] Methylation of PEEC samples and hepoxilin A3 also provided similar ion spectra (data not shown). […] PEEC activity was also observed to have other chemical properties similar to hepoxilin A3, such as being labile in the presence of acetonitrile/0.1% trifluoroacetic acid (FIG. 3D).
# [3] = tested on: PMN transmigration across T84 cell monolayers; experiment: PMN transepithelial migration to imposed gradients of lipids across T84 monolayers; assay type: cell-based, human; conditions: for PMN transepithelial migration (PEEC activity) induced by added lipid: imposed gradients across T84 cell monolayers, basolateral-to-apical
# Experimental: Crude preparations of PEEC were collected from the apical surface of polarized T84 cell monolayers following infection with S. typhimurium SL1344 as previously described (McCormick et al., 1998). For these experiments, T84 intestinal epithelial cells (passages 45 to 65) were grown in a 1:1 mixture of Dulbecco-Vogt modified Eagles medium and Ham's F-12 medium supplemented with 15 mM Hepes buffer (pH 7.5), 14 mM NaHCO3, 40 mg/liter penicillin, 8 mg/liter ampicillin, 90 mg/liter streptomycin and 5% newborn calf serum. Polarized monolayers of T84 cells were formed and maintained on 0.33 cm^2 ring-supported collagen-coated polycarbonate filters (Costar Corp., Cambridge, Mass.) as previously described (Madara et al., 1992) with recently detailed modifications (Dharmsathaphorn and Madara, 1990). T84 cell monolayers reached a steady-state resistance 4 to 6 days after plating with some variability largely related to cell passage number. Cell culture inserts of inverted monolayers, used to study transmigration of PMN in the physiological basolateral-to-apical direction, were constructed as previously described (Madara et al., 1992; Dharmsathaphorn and Madara, 1990; Nash et al., 1991).
# (§1) It was further examined if hepoxilin A3 acts in a gradient fashion to drive PMN migration from the basolateral to the apical epithelial surface. For these experiments, the physiologically directed (basolateral-to-apical) PMN transepithelial migration assay using cell culture inserts of inverted T84 monolayers has been used (McCormick et al., 1993; Parkos et al., 1992). Human PMN were isolated from normal volunteers, as described elsewhere (Parkos et al., 1992; Henson and Oades, 1975). PMN transmigration results were represented as PMN cell equivalents (CE) derived from a daily standard PMN dilution curve. PMN which completely traversed the monolayer were represented as the number of PMN (CE/ml in a total volume of 1 ml). Values were expressed as the mean and SD of an individual experiment done in triplicate repeated at least 3 times.
# Arachidonic acid is the initial substrate used by a variety of metabolic pathways involving lipoxygenase (LO) activities—enzymes that add hydroxyl groups at specific carbon atoms of this 20-carbon fatty acid. […] Therefore, in addition to hepoxilin A3, a wide range of arachidonic acid metabolites for their ability to incite the transmigration of PMNs across T84 monolayers in vitro was examined (Table 1). […] This is consistent with previous reports that LTB4 is capable of inducing PMN transmigration.
# PMN [4] = experiment: PMN intracellular Ca2+ mobilization; assay type: cell-based, human
# Excerpt: Further, crude PEEC preparations were collected from postinfected T84 cells monolayers. Samples were first passed through an Amicon ultra-filtration apparatus (Millipore Corp.; Bedford, Mass.) fitted with a 2,000 Da cut-off membrane. Filtrate components were bound to a Backerbond spe™ octadecyl extraction column (J. T. Baker; Philipsburg, N.J.) that was subsequently eluted with water, hexane, and finally methanol. The methanol fraction was dried under vacuum and resuspended in 50:50 (vol:vol) methanol:2 mM Tris HCl (pH 7.5) and injected onto a Vydac C18 (10 μm; 300 Å) semi-preparative column ([…]) equilibrated with 2 mM Tris-HCl (pH 7.5). A methanol gradient of 1-10% over 10 minutes, then 10-60% over 25 minutes, followed by 60-100% over 45 minutes (all at room temperature) was used to isolate active PEEC fractions. Active fractions, having no detectable absorbance at 280 nm and weak absorbance at 214 nm, were analyzed using a Genesis C18 (4 μm, 120 Å) analytical HPLC column (4.6×150 mm) equilibrated with 5 mM triethylamine/acetic acid (pH 7.2). […] (FIG. 2A and B).
# (§2) To substantiate the notion that hepoxilin A3 was in fact the molecule responsible for PEEC bioactivity, it was examined whether synthetic hepoxilin A3 (BIOMOL, Plymouth Meeting, Pa.) could recapitulate PEEC bioactivity. […] Thus, authentic hepoxilin A3 recapitulates all known aspects of PEEC bioactivity consistent with the notion that hepoxilin A3 is in fact PEEC's active component.
# T84 monolayers [5] = experiment: Recovery of hepoxilin A3 in basolateral compartment after apical application to T84 monolayers; assay type: in vitro ADME, human; conditions: apical application of 4500 pmoles, over 90 minutes
# Experimental: (§3) First, any potential gradient by adding excess synthetic hepoxilin A3 to the basolateral compartment was counteracted. […] The establishment of a hepoxilin A3 gradient was next measured quantitatively. […] Hepoxilin A3 decay in both compartments was exponential and the above stated T1/2 values were determined by analyzing the slope of a best-fit line to a log-linear analysis of each data set. Because of the complex degradation events occurring in both the apical and basolateral compartments, no attempt was made to calculate a transport rate. Instead, the extent of recovery of hepoxilin A3 from the basolateral compartment following an apical application of 4500 pmoles was measured.
# T84 monolayers [6] = experiment: Hepoxilin A3 degradation in apical and basolateral compartments of T84 monolayers; assay type: in vitro ADME, human; conditions: for time to 50% loss of intact compound (T1/2), average: average of two experiments
# Experimental: as §3
# PMN [7] = experiment: PMN degranulation assessed by elastase release; assay type: cell-based, human
# Excerpt: as §2
# [8] = tested on: PMN transmigration across T84 cell monolayers; experiment: Disruption of hepoxilin A3 gradient by basolateral addition, PMN transepithelial migration across T84 monolayers; assay type: cell-based, human; conditions: 5 μg/ml basolateral; migration induced by S. typhimurium, recombinant SipA or imposed gradients of hepoxilin A3
# Excerpt: as §1
# as §3, with “Because of the complex degradation events occurring in both the apical and basolateral compartments, no attempt was made to calculate a transport rate.” left out
smiles,measurement,setting,value
CCCCC/C=C\C[C@@H]1O[C@H]1/C=C/C(O)C/C=C\CCCC(=O)O (some centres unmarked) [hepoxilin A3],P. aeruginosa-induced PMN transepithelial migration with gradient disruption,[1],inhibited
same,stability in acetonitrile/0.1% trifluoroacetic acid,[2],labile
same,PMN transepithelial migration induced by imposed gradients,"[3]; hepoxilin A3 0.5-5 μg/ml, FIG. 4A",induce PMN transepithelial migration in a dose dependent fashion
same,PMN transepithelial migration (PEEC activity) induced by added lipid,[3],induced transepithelial migration
same,PMN transepithelial migration (PEEC activity) induced by added lipid,[3]; listed as Hepoxilin A3,saturated response
same,PMN intracellular Ca2+ mobilization,PMN [4],elicited an increase in [Ca^2+] in PMN
same,intracellular Ca2+ in PMN,"PMN [4]; 5 μg/ml, FIG. 4B",increase in intracellular Ca^2+
same,amount of intact compound recovered from the basolateral compartment,T84 monolayers [5],low but detectable amount and low
same,"time to 50% loss of intact compound (T1/2), single experiments",T84 monolayers [6]; apical chamber,1.28 h and 1.45 h
same,"time to 50% loss of intact compound (T1/2), average",T84 monolayers [6]; apical chamber of T84 monolayers,1.37 h
same,"time to 50% loss of intact compound (T1/2), single experiments",T84 monolayers [6]; basolateral compartment,0.817 h and 0.625 h
same,"time to 50% loss of intact compound (T1/2), average",T84 monolayers [6]; basolateral compartment of T84 monolayers,0.717 h
same,PMN degranulation,PMN [7],did not induce PMN degranulation; also recorded: not observed
same,effect of basolateral addition on PMN transepithelial migration,[8],significantly diminished PMN transepithelial migration
